The target in one series is B-Raf V600E (Homo sapiens (Human), UniProt P15056, V600E). Description: B-Raf V600E/Mek Amplified Luminescence Proximity Homogeneous Assay (B-Raf V600E biochemical). As to conditions: read-out: BRAF V600E biochemical IC50. The procedure: The plate was incubated for 60 minutes at room temperature.
The B-Raf kinase activity reaction was started by the addition of 10 μl per well of 2×ATP (10 μM) diluted in assay buffer. After 3 hours, the reactions were stopped with the addition of 10 μl of stop reagent (60 mM EDTA, 0.01% Tween20). Phosphorylated product was measured using a rabbit anti-p-MEK (Cell Signaling, #9121) antibody and the Alpha Screen IgG (ProteinA) detection Kit (PerkinElmer #6760617R), by the addition of 30 μl to the well of a mixture of the antibody (1:2000 dilution) and detection beads (1:1000 dilution of both beads) in bead buffer (50 mM Tris, pH 7.5, 0.01% Tween20). The additions were carried out under dark conditions to protect the detection beads from light. A lid was placed on top of the plate and the plate was incubated for 1 hour at room temperature. The luminescence was read on a PerkinElmer Envision instrument. The concentration of each compound for 50% inhibition (IC50) was calculated by non-linear regression using XL Fit data analysis software.

Series [1] is described as follows: Liver Microsomal Clearance Assay, human. As to conditions: extraction ratio, human liver microsomes. The format is in vitro ADME. How it is done: (§1) Liver Microsomal Clearance Assay
(§2) The in vitro microsomal clearance assay is designed to assess potential risks associated with hepatic metabolic stability of compounds. The test compound (1 μM) was incubated with liver microsomes (0.5 mg/mL) from different species (mouse, rat, monkey, dog and human) and NADPH (1 mM) in 100 mM potassium phosphate buffer at 37° C. At specific reaction time points (0, 5, 10 and 30 minutes), reaction aliquots were removed and reactions were terminated by addition of ice cold acetonitrile containing mass spectrometry internal standard. The samples were centrifuged and the supernatants were analyzed by LC-MS/MS. In vitro metabolic half-life (t1/2, min) and intrinsic clearance (CLint, μL/min/mg) are based on the rate and extent of metabolism of the test compound as determined by the disappearance of the parent compound from the reaction mixture. These values may be scaled to predict hepatic metabolic clearance rate (CLh, mL/min/kg) and extraction ratio (ER, expressed as a ratio of the predicted hepatic metabolic clearance to hepatic blood flow in that species). In general, compounds with high predicted CLint or ER in vitro are considered to be at high risk for exposure-limiting metabolism in vivo.

A short description of series [2]: Liver Microsomal Clearance Assay, mouse. The format is in vitro ADME. As to conditions: extraction ratio, mouse liver microsomes. The procedure: as §1, §2
A short description of series [3]: In Vivo Pharmacokinetics Assay in mouse. As to conditions: for bioavailability at 24 h: 10 mg/kg, PO/IV 10/2 mg/kg; for clearance at 24 h: IV 2 mg/kg. The procedure:
Full pharmacokinetics study: Male Balb/c mice (n=3, body weights 22-25 g) or male Wistar rats (n=3, body weights 250-300 g) were administered the test compound intravenously via the lateral tail vein or orally via gavage. The formulation was typically a 2.5 mg/mL solution of the compound in 75% PEG300 and 25% D5W. Six blood samples of 50 μL each were collected serially for 24 h after dosing. The blood samples were centrifuged to separate the plasma. Plasma samples were analyzed and quantified by LC-MS/MS.
Rapid pharmacokinetics study: Male Balb/c mice (n=3, body weights 22-25 g) or male Wistar rats (n=3, body weights 250-300 g) were administered the test compound intravenously (IV) via the lateral tail vein or orally (PO) via gavage. The formulation was typically a 2.5 mg/mL solution of the compound in 75% PEG300 and 25% D5W. Six blood samples of 50 μL each were collected serially for 24 h after dosing. Blood samples were centrifuged and plasma separated and pooled across the three animals at each time point per dose route. Plasma samples were analyzed and quantified by LC-MS/MS.
For both full and rapid pharmacokinetics studies, the following parameters were calculated by non-compartmental regression analysis using Winnonlin 5.0 software (Pharsight, Mountain View, Calif., USA): plasma clearance (Cl), plasma maximum concentration (Cmax), plasma area-under-the-concentration-time-curve (AUC0-inf), and percent oral bioavailability (F %).

For the next series, the system named is A375 cells. Description: In Vivo Efficacy - 14 Day A375 Mouse Xenograft Model. How it is done: A375 cells were grown in sterile conditions in a 37° C. incubator with 5% CO2 for two to four weeks. The cells were cultured in RPMI-1640 media supplemented with 10% FBS. Cells were passaged twice weekly with 0.05% Trypsin/EDTA. On the day of implant, cells were harvested in HBSS (Hank's Balanced Salt Solution). Female Nu/Nu mice (Charles River, 10-11 weeks at start of study) were implanted with 5×10^6 A375 cells/mouse in 50% matrigel, 0.2 mL SQ right flank on day 1. At 19 days post-implant, mice were randomized into 6 groups (9 mice per group), with an average tumor volume of 215 mm^3 and average body weight of 24 g. Test compound was dosed BID for 14 days commencing on day 19 using a dosing volume 0.2 mL per dose, with compound formulated at the appropriate concentration to attain the desired dose level. Clinical observations were made daily. Tumor volume and body weight were measured twice weekly.
Tumor volume results were assessed at 14 days post-first dose. Partial response is defined as having tumor growth 20-50% of control tumor growth. Stable disease is defined as having final tumor volume within +/−20% of initial tumor size. Partial regression is defined as having final tumor volume<80% of initial tumor volume.

In another series the test system is SW620 cells. Description: SW620 Cell Viability Assay (Cell Titer Glo). The format is cell-based. As to conditions: FIG. 1, compound alone. The procedure:
The present invention also includes combinations of the BRaf inhibitors disclosed in this invention with other agents. In particular, the present invention provides for combinations with MEK1/2 inhibitors. FIG. 1 illustrates that the addition of a MEK small molecule inhibitor can reverse the induced ERK signaling, cell growth and transformation caused by a Raf small molecule inhibitor.
SW620 cells were seeded in 1640 RPMI+10% FBS at a density of 1500 cells per 96-well in black walled, clear bottom tissue culture treated plates. Test compounds were serially diluted in DMSO then added to the cells (final DMSO concentration of 0.1%) and incubated at 37° C. and 5% CO2 for 4 days. To measure cell viability, cell plates were brought to room temperature, culture media was removed, and 200 μl of Cell Titer-Glo reagent (Promega, kit components mixed as per the manufacturer's protocol then diluted 1:2 with growth media) was added to each well. Plates were shaken for 5 minutes, then incubated at room temperature for 5 minutes, and the luminescence was measured (Trilux, Perkin Elmer).

Where [4] appears, read: male, Balb/c, plasma, PO 10 mg/kg.

These results are taken from patent US9314464B2, “Compounds and compositions as protein kinase inhibitors” (Novartis AG, priority 2009, dated 2016).

B-Raf V600E, sequence (P15056 whole entry V600E): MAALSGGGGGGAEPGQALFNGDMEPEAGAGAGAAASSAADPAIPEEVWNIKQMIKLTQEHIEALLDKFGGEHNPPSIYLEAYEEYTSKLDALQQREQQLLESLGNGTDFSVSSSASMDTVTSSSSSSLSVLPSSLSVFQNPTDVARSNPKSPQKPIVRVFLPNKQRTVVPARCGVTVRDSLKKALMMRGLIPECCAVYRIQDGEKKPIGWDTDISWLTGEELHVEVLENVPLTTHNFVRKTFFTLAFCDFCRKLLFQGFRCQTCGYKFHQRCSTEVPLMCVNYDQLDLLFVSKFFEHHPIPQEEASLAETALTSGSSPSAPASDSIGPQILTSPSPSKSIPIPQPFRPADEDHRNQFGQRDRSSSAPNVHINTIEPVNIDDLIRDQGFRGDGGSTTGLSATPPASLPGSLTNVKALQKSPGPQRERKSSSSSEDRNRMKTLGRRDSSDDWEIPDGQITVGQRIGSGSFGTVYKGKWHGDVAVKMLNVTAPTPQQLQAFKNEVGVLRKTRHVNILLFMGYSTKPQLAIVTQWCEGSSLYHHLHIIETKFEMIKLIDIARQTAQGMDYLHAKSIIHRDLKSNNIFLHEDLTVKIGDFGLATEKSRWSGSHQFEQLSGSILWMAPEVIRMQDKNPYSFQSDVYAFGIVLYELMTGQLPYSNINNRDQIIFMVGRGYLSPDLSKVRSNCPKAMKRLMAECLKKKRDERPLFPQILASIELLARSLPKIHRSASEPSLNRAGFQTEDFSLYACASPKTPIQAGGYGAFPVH

Take `COC(=O)N[C@@H](C)CNc1nccc(-c2cn(C(C)C)nc2-c2cccc(NS(C)(=O)=O)c2F)n1` [Compound 4, methyl N-[(2S)-1-({4-[3-(2-fluoro-3-methanesulfonamidophenyl)-1-(propan-2-yl)-1H-pyrazol-4-yl]pyrimidin-2-yl}amino)propan-2-yl]carbamate]: the IC50 at B-Raf V600E worked out at 2.3 nM. In addition, the “ER Human” value in series [1] is on record as less than 0.31. Further, the “ER Mouse” value in series [2] came to 0.40. In series [3] (male, Balb/c, plasma), this molecule yielded a bioavailability at 24 h of 36 ± 6% and a clearance at 24 h of 41 ± 9 mL/min/kg. In addition, in series [3] (setting [4]), the AUC at 24 h came out at 3 ± 0.5 µM·h and the Cmax at 24 h was found to be 2000 ± 500 nM.

Take `CCCS(=O)(=O)Nc1ccc(F)c(-c2nn(C(C)C)cc2-c2ccnc(NC[C@H](C)NC(=O)OC)n2)c1F` [Compound 7, Methyl N-[(2S)-1-[(4-{3-[2,6-difluoro-3-(propane-1-sulfonamido)phenyl]-1-(propan-2-yl)-1H-pyrazol-4-yl}pyrimidin-2-yl)amino]propan-2-yl]carbamate]: the IC50 at B-Raf V600E was 0.7 nM. In series [1], the “ER Human” value came out at 0.65. Also, the “ER Mouse” value in series [2] is given as 0.91. In series [3] (male, Balb/c, plasma), this molecule had a bioavailability at 24 h of 8 ± 7% and a clearance at 24 h of 99 ± 13 mL/min/kg. Besides, in series [3] (setting [4]), the AUC at 24 h is 0.24 ± 0.21 µM·h and the Cmax at 24 h is 150 ± 70 nM.

As for `COC(=O)N[C@@H](C)CNc1nccc(-c2cn(C(C)C)nc2-c2cc(Cl)cc(NS(C)(=O)=O)c2F)n1` [Compound 9, Methyl N-[(2S)-1-({4-[3-(5-chloro-2-fluoro-3-methanesulfonamidophenyl)-1-(propan-2-yl)-1H-pyrazol-4-yl]pyrimidin-2-yl}amino)propan-2-yl]carbamate], the “ER Human” value in series [1] was less than 0.21. For the same molecule, the “ER Mouse” value in series [2] amounted to 0.48. For the same molecule, the “PO AUC” value in series [3] (PO 10 mg/kg) amounted to 30 ± 4 µM·h. Moreover, the bioavailability at 24 h in series [3] (male, Balb/c, plasma) was 43 ± 6%. Besides, the clearance at 24 h in series [3] (male, Balb/c, plasma) came to 4.3 ± 0.4 mL/min/kg. Moreover, the concentration in series [3] (setting [4]) peaked (Cmax at 24 h) at 27000 ± 4000 nM. The same molecule displayed an AUC in series [3] (male, Balb/c, plasma, oral dose of 10 mg/kg) of 30 ± 4 µM·h. For the same molecule, the Tumor volume result in the series with A375 cells (1 mg/kg bid×14, 14 days post-first dose) is recorded as “partial response (Partial response is defined as having tumor growth 20-50% of control tumor growth)”; in the series on A375 cells (3 mg/kg bid×14, 14 days post-first dose), “stable disease (Stable disease is defined as having final tumor volume within +/−20% of initial tumor size)”; in the series on A375 cells (10 mg/kg bid×14, 14 days post-first dose), “partial regression (Partial regression is defined as having final tumor volume<80% of initial tumor volume)”; in the series with A375 cells (20 mg/kg bid×14, 14 days post-first dose), “partial regression (Partial regression is defined as having final tumor volume<80% of initial tumor volume)”. In addition, the “cellular proliferation in Cell Titer Glo assay” value in the series on SW620 cells is on record as “induction in cellular proliferation”.
